The Kd is the constant that tells how readily two partners part at equilibrium. The IC50 is the midpoint of a concentration-inhibition curve. A high value points to lower potency.

Consider 8 compounds from patent publication US12503484B2, “Androstane derivatives with activity as pure or predominantly pure stimulators of SERCA2a for the treatment of heart failure” (Seismic Pharmaceuticals, priority 2019, dated 2025).

For one series, the target named is SERCA2a (Cavia porcellus, UniProt A0A286XD73). The series is described as follows: SERCA2a ATPase activity in heart-derived SR microsomes from normal guinea-pig. In kind it is biochemical. As for the experimental part:
SERCA2a ATPase Activity in Heart-Derived SR Microsomes from Normal Quinea-Pig
SERCA2a activity was measured in vitro as ^32P-ATP hydrolysis at different Ca^2+ concentrations (100-4000 nM) in the absence and presence of the tested compounds, as described (Micheletti R. et al., Am J Card 2007, 99:24A-32A). Increasing concentrations of each compound (ranging from 1 to 200 nM) were pre-incubated with 2 μg of SERCA2a enriched microsomes for 5 min at 4° C. in 80 μl of a solution containing 100 mM KCl, 5 mM MgCl2, 1 μM A23187, 20 mM Tris, pH 7.5. […] SERCA2a-dependent activity was identified as the portion of total hydrolytic activity inhibited by 10 μM cyclopiazonic acid (Seidler N W et al., J Biol Chem. 1989, 264:17816-23).
Dose-response curves were fitted by using a sigmoidal equation and the activity at the maximal velocity (Vmax) and the Kd for Ca^2+ were calculated (Synergy Software KaleidaGraph 3.6). The effect of the compounds in normal guinea-pig preparations was expressed as % decrease of Kd Ca^2+ (implying an increase of affinity for Ca^2+) of a control sample run in the absence of compound (Table 2). […] Data are mean±SD, n=number of experiments, *at least p<0.05.

Series [1] relates to rat ventricular myocytes isolated from STZ rats. Briefly: SR Ca2+ uptake function in ventricular myocytes from STZ rats (loading protocol). In kind it is cell-based. The conditions noted are these: 1 μM. The text has this: (§1) The compounds were characterized for their effect on (i) SR Ca^2+ uptake function and (ii) action potential (AP) in myocytes freshly dissociated from rat and guinea-pig ventricles, respectively, by retrograde coronary perfusion with enzymatic solution (Rocchetti M et al., J Pharmacol Exper Therap 2005, 313(1):207-215).
To test the effects of the compounds in a model of diastolic dysfunction, Sprague Dawley male rats (150-175 g) were made diabetic by a single tail vein injection of streptozotocin (STZ 50 mg/kg, Sigma-Aldrich). STZ was freshly prepared in 0.1 M sodium citrate buffer at pH 4.5. Fasting glycaemia was measured after 1 week and rats with values >300 mg/dl were considered diabetic. Drug effects on SR Ca^2+ uptake function were evaluated in isolated left ventricular myocytes 9 weeks after STZ injection. Myocytes were incubated for at least 30 min in the presence of a specific drug to guarantee its cell membrane permeation. Statistical analysis was performed by a “group comparison” model.
Drug effects on SR Ca^2+ uptake rate were evaluated with a SR “loading protocol” specifically devised to rule out the contribution of the Na/Ca exchanger (NCX) and to assess the uptake rate starting at low levels of SR Ca^2+ loading. Under voltage-clamp conditions, intracellular Ca^2+ concentration was dynamically measured by epifluorescence (Fluo4-AM). Membrane current, whose time-dependent component mainly reflected ICaL, was simultaneously recorded. The SR loading protocol consisted in emptying the SR by a brief caffeine pulse and then progressively refilling it by voltage steps activating Ca^2+ influx through the sarcolemmal Ca^2+ channel (ICaL). NCX was blocked by omission of Na^+ from intracellular and extracellular solutions. The procedure is in agreement with published methods, with minor modifications (Rocchetti M et al., J Pharmacol Exper Therap 2005, 313:207-215).
Drug effects on SR Ca^2+ uptake were analyzed by considering multiple parameters: the rate at which 1) Ca^2+ transient (CaT) amplitude and 2) the Ca^2+ induced Ca^2+ release (CICR) gain increased during the loading protocol, reflecting the rate at which the SR refilled and the gain of the system, 3) the time constant of cytosolic Ca^2+ decay (τdecay) within each pulse, reflecting net Ca^2+ transport rate (by SERCA2a) across the SR membrane (a decrease in τdecay corresponds to enhanced SR Ca^2+ uptake).

Series [2] relates to guinea-pig ventricular myocytes. Briefly: Action potential measurements in guinea-pig ventricular myocytes. The conditions noted are these: 1 μM. In kind it is cell-based. As for the experimental part:
as §1
Cvie216 and Cvie214 effects on action potential parameters were evaluated at the concentration of 1 μM modulating SERCA2a in guinea-pig myocytes. The action potential (AP) contour provides a first-line estimate of the integrated function of membrane ion channels, and its changes may disclose ancillary actions—potentially resulting in untoward effects of the compound. To increase sensitivity of the AP contour as a reporter, effects on the rate-dependency of AP parameters were also tested, thus providing a multiparametric (more stringent) approach. AP were recorded in guinea-pig ventricular myocytes because the AP contour reproduces the human AP. […] Statistical analysis was performed by a “group comparison” model.
APs were recorded in normal Tyrode's solution at 36.5° C. in guinea-pig ventricular myocytes. The following parameters were measured at 4 stimulation rates (0.5-1-2-4 Hz): diastolic membrane potential (Ediast), maximum depolarization velocity (dV/dtmax), action potential duration (APD at 90% of repolarization). Short term APD variability (STV) during steady-state pacing, an index of repolarization stability, was measured as the sum of absolute orthogonal deviations from the identity line in the APDnfAPDn+1 plot (Poincare plot) (Altomare C et al., Circulation A&E 2015, 8:1265-1275).

The target of series [3] is dog renal Na^+/K^+ ATPase (Canis lupus familiaris (Dog) (Canis familiaris), UniProt P50997). Briefly: biochemical. The conditions noted are these: IC50 inhibition of dog renal Na+/K+ ATPase, purified dog kidney enzyme.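 Note: enzyme preincubated with inhibitor 10 min at 37 °C, then K^+ and ^32P-ATP added for 15 min, released ^32P counted, activity relative to untreated control.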
Excerpt: Inhibition of Dog Renal Na^+/K^+ ATPase Activity
The compounds were thus tested for their inhibitory effect on the canine renal Na^+/K^+ ATPase enzyme.
Kidneys were excised from 1-3 year-old male beagle dogs (WuXi AppTec, Suzhou Co., Ltd. 1318 Wuzhong Ave., Wuzhong District Suzhou, 215104 P.R. China) under pentobarbital anesthesia (Import Authorization from Italian Health Ministry 0009171-09/04/2015-DGSAF-COD_UO-P, 2015). Kidneys were sliced and the outer medulla was dissected and suspended (1 g/10 ml) in a sucrose-histidine solution containing 250 mM sucrose, 30 mM histidine, and 5 mM EDTA, pH 7.2. The tissue was homogenized by using an Ultra Turrax homogenizer. The sample was centrifuged at 6,000 g for 15 min. Next, the supernatant was decanted and centrifuged at 48,000 g for 30 min. The pellet was suspended in the sucrose-histidine buffer and incubated for 20 min with a sodium-dodecyl-sulphate (SDS) solution dissolved in a gradient buffer containing 25 mM imidazole and 1 mM EDTA, pH 7.5. The sample was layered on the top of a sucrose discontinuous gradient (10, 15, and 29.4%) and centrifuged at 60,000 g for 115 min. The pellet was suspended in the gradient buffer.
Increasing concentrations of the standard ouabain, or tested compound, were incubated with 0.3 μg of purified dog kidney enzyme for 10 min at 37° C. in 120 μl final volume of a medium containing 140 mM NaCl, 3 mM MgCl2, 50 mM Hepes-Tris, 3 mM ATP, pH 7.5. Then, 10 μl of a solution containing 10 mM KCl and 20 nCi of ^32P-ATP (3-10 Ci/mmol, Perkin Elmer) were added. The reaction was allowed to continue for 15 min at 37° C. and then stopped by acidification with 20% v/v ice-cold perchloric acid. ^32P was separated by centrifugation with activated Charcoal (Norit A, Serva) and the radioactivity was counted. The inhibitory activity was expressed as percent of the control samples carried out in the absence of ouabain, or tested compound.
[4] abbreviates: read-out: Kd Ca2+ (nM) mean ± SD, compound 1 nM.
Setting [5] is: read-out: Kd Ca2+ (nM) mean ± SD, compound 10 nM.
Where [6] appears, read: read-out: Kd Ca2+ (nM) mean ± SD, compound 100 nM.
[7] abbreviates: read-out: Kd Ca2+ (nM) mean ± SD, compound 200 nM.
Where [8] appears, read: compound 100 nM, read-out: Kd Ca2+ (nM) mean ± SD.

“Also recorded” adds a separate entry of the source. Read-outs that look alike come from different tables or passages of the source. Marks after values point to notes of the source that are not given here.

SERCA2a, sequence (A0A286XD73 1-997): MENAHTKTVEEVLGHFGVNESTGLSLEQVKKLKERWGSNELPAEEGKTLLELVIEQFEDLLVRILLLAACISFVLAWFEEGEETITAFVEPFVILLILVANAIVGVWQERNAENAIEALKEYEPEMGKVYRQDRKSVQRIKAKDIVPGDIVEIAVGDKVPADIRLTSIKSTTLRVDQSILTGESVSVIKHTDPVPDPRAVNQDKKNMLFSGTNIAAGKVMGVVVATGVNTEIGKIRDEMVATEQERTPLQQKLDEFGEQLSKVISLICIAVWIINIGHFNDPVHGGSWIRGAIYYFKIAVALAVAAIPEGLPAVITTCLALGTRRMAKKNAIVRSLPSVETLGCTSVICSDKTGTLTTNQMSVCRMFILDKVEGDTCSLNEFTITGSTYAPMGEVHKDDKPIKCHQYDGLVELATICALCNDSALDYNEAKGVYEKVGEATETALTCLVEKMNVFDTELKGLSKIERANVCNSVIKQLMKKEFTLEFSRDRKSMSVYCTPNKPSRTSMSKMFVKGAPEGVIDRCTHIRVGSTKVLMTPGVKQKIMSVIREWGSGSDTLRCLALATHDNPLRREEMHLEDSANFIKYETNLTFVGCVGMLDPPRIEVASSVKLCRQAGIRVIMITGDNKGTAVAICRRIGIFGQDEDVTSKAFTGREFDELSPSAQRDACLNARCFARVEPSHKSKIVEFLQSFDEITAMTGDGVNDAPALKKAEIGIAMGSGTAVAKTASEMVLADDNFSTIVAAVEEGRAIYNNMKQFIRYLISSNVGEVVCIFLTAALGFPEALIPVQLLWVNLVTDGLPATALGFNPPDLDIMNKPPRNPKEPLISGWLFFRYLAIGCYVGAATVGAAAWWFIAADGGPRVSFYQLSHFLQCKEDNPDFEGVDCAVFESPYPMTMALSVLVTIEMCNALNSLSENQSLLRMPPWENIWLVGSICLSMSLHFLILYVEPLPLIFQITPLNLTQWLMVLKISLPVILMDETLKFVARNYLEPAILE

In the case of `C[C@]12CC[C@H](CC(=O)O)CC1C(O)CC1C2CC[C@]2(C)C(=O)CCC12` (stereo in doubt) [CVie216, 2-(6beta-hydroxy-17-oxoandrostane-3-yl) acetic acid], on SERCA2a (setting [4]), the dissociation constant Kd is 529 ± 75.8 nM. In addition, the dissociation constant Kd on SERCA2a (setting [5]) stood at 465 ± 73.4 nM. Also, the dissociation constant (Kd) at SERCA2a (setting [6]) is 443 ± 85.1 nM. For the same compound, the equilibrium dissociation constant (Kd) on SERCA2a (setting [7]) was determined as 463 ± 76.3 nM. Further, in series [1], the “Ca2+ transient (CaT) amplitude / rate of CaT increment during SR reloading” value is on record as “statistically significant; also recorded: increased”, the “Ca2+ uptake by the SR” value is on record as “significantly increased”, the “Ca2+-induced Ca2+ release (CICR) gain” value is given as “increase” and the “time constant of Ca2+ decay (τdecay)” value was “reduction”. In series [2] (0.5-1-2-4 Hz), the “action potential duration (APD90)” value is “did not affect”, the “diastolic membrane potential (Ediast)” value is “did not affect”, the “maximum depolarization velocity (dV/dtmax)” value is on record as “did not affect” and the “rate-dependency of each AP parameter” value was “did not affect”. Moreover, in series [2] (all pacing rates pooled), the “slope of linear fit STV vs mean APD90” value was found to be 0.009. Besides, the “short term APD variability (STV) and its dependency on mean APD” value in series [2] (pacing rates 0.5-1-2 and 4 Hz) is “not significantly affected”. Also, the IC50 in series [3] is more than 100000 nM.

As for `C[C@]12CC[C@H](CCCC(=O)O)CC1[C@H](O)C[C@@H]1[C@@H]2CC[C@]2(C)C(=O)CC[C@@H]12` (stereo partly drawn) [CVie215, 4-(6beta-hydroxy-17-oxoandrostane-3-yl) butyric acid], the Kd at SERCA2a (compound 1 nM, read-out: Kd Ca2+ (nM) mean ± SD) stood at 530 ± 47.9 nM; on SERCA2a (compound 10 nM, read-out: Kd Ca2+ (nM) mean ± SD), 459 ± 80.3 nM; at SERCA2a (setting [8]) it was 437 ± 74.1 nM. The same compound displayed an IC50 in series [3] of more than 100000 nM.

Consider `CCOC(=O)CCC[C@H]1CC[C@]2(C)C3CC[C@]4(C)C(=O)CCC4C3C[C@H](O)C2C1` (stereo partly drawn) [CVie217, 4-(6alpha-hydroxy-17-oxoandrostane-3-yl) ethylbutiroate], for which the “% change in Ca2+ Kd vs control (negative = decrease)” value (“% change … (negative = decrease)” for short) at SERCA2a (compound 1 nM) is reported as −20%; at SERCA2a (compound 10 nM), −24.7%*; at SERCA2a (compound 100 nM), −20%*; on SERCA2a (compound 200 nM), −29.4%*. The dissociation constant (Kd) was determined as 763 ± 103 nM on SERCA2a (setting [4]), 719 ± 142 nM at SERCA2a (setting [5]), 764 ± 120 nM at SERCA2a (setting [6]) and 674 ± 150 nM on SERCA2a (setting [7]). This compound showed a half-inhibitory concentration (IC50) in series [3] of more than 100000 nM.

Turning to `CCOC(=O)CCCCC[C@H]1CC[C@]2(C)C3CC[C@]4(C)C(=O)CCC4C3C[C@H](O)C2C1` (stereo partly drawn) [CVie218], the “% change … (negative = decrease)” value was −3% on SERCA2a (compound 1 nM), −7%* at SERCA2a (compound 10 nM), −19.1%* on SERCA2a (compound 100 nM) and −15%* at SERCA2a (compound 200 nM). Also, the Kd on SERCA2a (setting [4]) stood at 705 ± 88.8 nM; on SERCA2a (setting [5]), 677 ± 13.8 nM; at SERCA2a (setting [6]) it was 587 ± 50.5 nM; on SERCA2a (setting [7]), 619 ± 48 nM. Moreover, in series [3], the 50% inhibitory concentration (IC50) is more than 100000 nM.

Consider `C[C@]12CC[C@H](CCC3CNC3)CC1[C@@H](CO)C(=O)C1C2CC[C@]2(C)C(=O)CCC12` (stereo partly drawn) [CVie407], for which the “% change … (negative = decrease)” value on SERCA2a (compound 100 nM) is on record as −8.9%; at SERCA2a (compound 200 nM), 0%. Also, the Kd came out at 390 ± 91.4 nM on SERCA2a (setting [6]) and 428 ± 87.3 nM at SERCA2a (setting [7]). Moreover, half-maximal inhibition in series [3] (IC50) required 3500 nM.

For the compound `C[C@]12CC[C@H](CCC3CNC3)CC1[C@@H](CO)[C@@H](O)C1C2CC[C@]2(C)C(=O)CCC12` (stereo partly drawn) [CVie408], the “% change … (negative = decrease)” value was −20.7%* on SERCA2a (compound 100 nM) and −21%* on SERCA2a (compound 200 nM). Further, the Kd was found to be 356 ± 33.8 nM on SERCA2a (setting [6]) and 355 ± 66.9 nM at SERCA2a (setting [7]). This compound also yielded a concentration for half-maximal inhibition (IC50) in series [3] of 3300 nM.

For `C[C@]12CC[C@H](CCC3CCNCC3)CC1[C@@H](CO)C(=O)[C@@H]1[C@@H]2CC[C@]2(C)C(=O)CC[C@@H]12` (stereo partly drawn) [CVie411, 3beta-[2-(piperidin-4-yl)ethyl]-6alpha-hydroxymethylandrostane-7,17-dione], the figures for the “% change … (negative = decrease)” value at SERCA2a (compound 100 nM) and at SERCA2a (compound 200 nM) were 0% and −4.9%, respectively. Besides, the Kd on SERCA2a (setting [8]) turned out to be 428 ± 76.6 nM; at SERCA2a (compound 200 nM, read-out: Kd Ca2+ (nM) mean ± SD) it was 407 ± 111 nM. The compound further showed a half-inhibitory concentration (IC50) in series [3] of 1900 nM.

For the compound `C[C@]12CC[C@H](CCC3CCNCC3)CC1[C@@H](CO)[C@@H](O)[C@@H]1[C@@H]2CC[C@]2(C)C(=O)CC[C@@H]12` (stereo partly drawn) [CVie412, 3beta-[2-(piperidin-4-yl)ethyl]-6alpha-hydroxymethyl-7alpha-hydroxyandrostane-17-one], the “% change … (negative = decrease)” value was −19.1% at SERCA2a (compound 100 nM) and −19.6%* on SERCA2a (compound 200 nM). In addition, the dissociation constant (Kd) stood at 363 ± 74.1 nM on SERCA2a (setting [6]) and 361 ± 76.3 nM on SERCA2a (setting [7]). In series [3], this compound showed a 50% inhibitory concentration (IC50) of 3000 nM.
